Assay results published in ChEMBL document CHEMBL1201862, “PubChem BioAssay data set” (2004).
Active and inactive are the calls of the source.

Legend:
[1] = target: Transitional endoplasmic reticulum ATPase (Homo sapiens, UniProt P55072, C522A); assay: C522A mutant p97 ATPase inhibitors, dose response, counter-screen for p97 inhibitor project, biochemical, luminescence (AID 1544)
[2] = target: Transitional endoplasmic reticulum ATPase (Homo sapiens, UniProt P55072); assay: p97 ATPase inhibitors, dose response, biochemical (AID 1534)
[3] = target: Induced myeloid leukemia cell differentiation protein Mcl-1 (Homo sapiens, UniProt Q07820); type: functional
Beta-galactosidase = Beta-galactosidase (Escherichia coli, UniProt Q8VNN2); assay: beta-galactosidase enzyme inhibitors and activators, dose response, artefact control for CCR6 antagonist project, biochemical, E. coli enzyme, set 3 (AID 504712); type: functional
SUMO E1/E2 = SUMO E1/E2 (Homo sapiens, UniProt P63279+Q9UBE0+Q9UBT2); assay: SAR analysis of SUMOylation using HTRF in an in-Vitro dose response assay. [Related pubchem assays (depositor defined):AID2006, AID2011, AID2018, AID2069, AID2658]; type: functional
[4] = target: T1, Voltage-gated N-type calcium channel alpha-1B subunit/Amyloid beta A4 precursor protein-binding family A member 1 (Homo sapiens, UniProt Q00975+Q02410); assay: disruptors of Mint-PDZ/N-type channel peptide interaction – biochemical, HTRF, set 2, SAR follow-up (AID 434980); type: functional
[5] = target: T1, Voltage-gated N-type calcium channel alpha-1B subunit/Amyloid beta A4 precursor protein-binding family A member 1; assay: disruptors of Mint-PDZ/N-type channel peptide interaction – biochemical, HTRF, SAR follow-up (AID 2489); type: functional
[6] = test system: Streptococcus sp. 'group A'; assay: growth inhibition of control SK(-) GAS strain, dose response, counter-screen for streptokinase expression inhibitor project, luminescence, kanamycin, BacTiterGlo, confirmation (AID 1900); type: functional, organism-based
Streptokinase A = target: T2, Streptokinase A (Streptococcus pyogenes serotype M1, UniProt P10520); assay: S. pyogenes streptokinase expression inhibitors, potency, dose response, plasminogen activation absorbance, OD405 (AID 1914); type: functional, Streptococcus pyogenes M1 GAS;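 further: secreted streptokinase activity via plasminogen activation per viability signal from cell pellet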
T2 sequence (P10520 whole entry): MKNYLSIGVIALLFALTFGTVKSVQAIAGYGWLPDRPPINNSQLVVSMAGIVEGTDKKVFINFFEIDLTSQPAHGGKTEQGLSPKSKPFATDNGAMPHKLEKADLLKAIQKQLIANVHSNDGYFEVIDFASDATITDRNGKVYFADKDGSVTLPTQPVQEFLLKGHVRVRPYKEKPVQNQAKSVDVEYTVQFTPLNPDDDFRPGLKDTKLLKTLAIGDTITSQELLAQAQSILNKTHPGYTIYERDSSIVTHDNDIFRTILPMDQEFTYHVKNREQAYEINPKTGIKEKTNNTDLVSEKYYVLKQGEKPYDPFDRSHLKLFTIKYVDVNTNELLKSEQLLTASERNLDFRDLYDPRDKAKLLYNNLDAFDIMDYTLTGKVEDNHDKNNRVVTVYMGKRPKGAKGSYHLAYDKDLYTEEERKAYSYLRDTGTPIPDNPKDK

Streptococcus = assay: Group A Streptococcus viability loss, dose response, counter-screen for streptokinase expression inhibitor project, luminescence, BacTiterGlo (AID 1915); type: functional, organism-based;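 further: potency for reduction of bacterial viability or growth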
[7] = target: Scavenger receptor class B member 1 (Mus musculus, UniProt Q61009); assay: inhibitors of SR-BI mediated HDL lipid uptake, dose response, ldlA[mSR-BI] cells, fluorescence, cherry pick (AID 493194); type: functional, cell-based;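 further: cellular uptake of fluorescent DiI-labeled HDL measured as cell fluorescence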
[8] = target: G-protein coupled receptor 35 (Homo sapiens, UniProt Q9HC97); assay: GPR35 antagonists blocking zaprinast-driven arrestin recruitment, primary screen, imaging, U2OS, beta-arrestin-GFP, zaprinast agonist (AID 2058); type: functional;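 further: antagonist potency meaning inhibition of agonist-induced arrestin redistribution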
[9] = target: T1, Voltage-gated N-type calcium channel alpha-1B subunit/Amyloid beta A4 precursor protein-binding family A member 1; type: protein assay
[10] = target: T1, Voltage-gated N-type calcium channel alpha-1B subunit/Amyloid beta A4 precursor protein-binding family A member 1; type: protein assay; remark: listed apart in the source
[11] = target: Eukaryotic translation initiation factor 4E (Mus musculus, UniProt P63073); assay: eIF4E–eIF4G protein interaction inhibitors, dose response, biochemical, TR-FRET (AID 855); type: functional;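 further: potency for disrupting eIF4E binding to eIF4GI seen as loss of FRET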
[12] = target: 26S proteasome non-ATPase regulatory subunit 14 (Homo sapiens, UniProt O00487); assay: inhibition of proteasome subunit RPN11 – biochemical, fluorescence polarization, uHTS hits, confirmation (AID 602368); type: functional
[13] = target: 72 kDa type IV collagenase (Homo sapiens, UniProt P08253); assay: Dose Response validation of uHTS RPN11 inhibitor hits using a MMP-2 Fluorescence assay.; type: functional
Prothrombin = Prothrombin (Bos taurus, UniProt P00735); assay: thrombin inhibition, dose response, biochemical, fluorescence polarization, uHTS hits (AID 602369); type: functional
Aminopeptidase N = Aminopeptidase N (Plasmodium falciparum FcB1/Columbia, UniProt O96935); assay: P. falciparum M1AAP inhibitors, biochemical, fluorogenic H-Leu-NHMec substrate, 1536-well (AID 1445); parameters: species or system Plasmodium falciparum 3D7, 3D7
[14] = target: T3, Long-chain-fatty-acid--AMP ligase FadD28 (Mycobacterium tuberculosis, UniProt P9WQ59); assay: Fluorescence polarization aasay to screen for inhibitors that compete for the binding of FadD28 to a bisubstrate Measured in Biochemical System Using Plate Reader - 2147-01_Inhibitor_Dose_CherryPick_Activity.; type: functional, Mycobacterium tuberculosis H37Rv
T3 sequence (P9WQ59 whole entry): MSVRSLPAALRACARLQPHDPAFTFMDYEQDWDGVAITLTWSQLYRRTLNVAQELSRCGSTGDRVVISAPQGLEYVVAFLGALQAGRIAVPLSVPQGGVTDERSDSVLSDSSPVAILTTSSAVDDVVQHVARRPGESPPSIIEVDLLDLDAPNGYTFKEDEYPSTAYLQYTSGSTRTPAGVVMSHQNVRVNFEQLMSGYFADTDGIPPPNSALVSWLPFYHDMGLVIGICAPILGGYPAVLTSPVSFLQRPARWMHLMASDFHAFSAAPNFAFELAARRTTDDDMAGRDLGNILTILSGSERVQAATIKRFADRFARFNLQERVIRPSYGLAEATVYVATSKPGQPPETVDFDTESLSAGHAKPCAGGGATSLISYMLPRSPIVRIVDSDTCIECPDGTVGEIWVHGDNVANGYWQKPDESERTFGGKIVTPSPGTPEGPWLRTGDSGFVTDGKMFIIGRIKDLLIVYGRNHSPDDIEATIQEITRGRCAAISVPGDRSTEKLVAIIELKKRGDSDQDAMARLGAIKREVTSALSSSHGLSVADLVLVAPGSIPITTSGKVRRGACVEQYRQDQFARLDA

T1 sequence (Q00975 whole entry): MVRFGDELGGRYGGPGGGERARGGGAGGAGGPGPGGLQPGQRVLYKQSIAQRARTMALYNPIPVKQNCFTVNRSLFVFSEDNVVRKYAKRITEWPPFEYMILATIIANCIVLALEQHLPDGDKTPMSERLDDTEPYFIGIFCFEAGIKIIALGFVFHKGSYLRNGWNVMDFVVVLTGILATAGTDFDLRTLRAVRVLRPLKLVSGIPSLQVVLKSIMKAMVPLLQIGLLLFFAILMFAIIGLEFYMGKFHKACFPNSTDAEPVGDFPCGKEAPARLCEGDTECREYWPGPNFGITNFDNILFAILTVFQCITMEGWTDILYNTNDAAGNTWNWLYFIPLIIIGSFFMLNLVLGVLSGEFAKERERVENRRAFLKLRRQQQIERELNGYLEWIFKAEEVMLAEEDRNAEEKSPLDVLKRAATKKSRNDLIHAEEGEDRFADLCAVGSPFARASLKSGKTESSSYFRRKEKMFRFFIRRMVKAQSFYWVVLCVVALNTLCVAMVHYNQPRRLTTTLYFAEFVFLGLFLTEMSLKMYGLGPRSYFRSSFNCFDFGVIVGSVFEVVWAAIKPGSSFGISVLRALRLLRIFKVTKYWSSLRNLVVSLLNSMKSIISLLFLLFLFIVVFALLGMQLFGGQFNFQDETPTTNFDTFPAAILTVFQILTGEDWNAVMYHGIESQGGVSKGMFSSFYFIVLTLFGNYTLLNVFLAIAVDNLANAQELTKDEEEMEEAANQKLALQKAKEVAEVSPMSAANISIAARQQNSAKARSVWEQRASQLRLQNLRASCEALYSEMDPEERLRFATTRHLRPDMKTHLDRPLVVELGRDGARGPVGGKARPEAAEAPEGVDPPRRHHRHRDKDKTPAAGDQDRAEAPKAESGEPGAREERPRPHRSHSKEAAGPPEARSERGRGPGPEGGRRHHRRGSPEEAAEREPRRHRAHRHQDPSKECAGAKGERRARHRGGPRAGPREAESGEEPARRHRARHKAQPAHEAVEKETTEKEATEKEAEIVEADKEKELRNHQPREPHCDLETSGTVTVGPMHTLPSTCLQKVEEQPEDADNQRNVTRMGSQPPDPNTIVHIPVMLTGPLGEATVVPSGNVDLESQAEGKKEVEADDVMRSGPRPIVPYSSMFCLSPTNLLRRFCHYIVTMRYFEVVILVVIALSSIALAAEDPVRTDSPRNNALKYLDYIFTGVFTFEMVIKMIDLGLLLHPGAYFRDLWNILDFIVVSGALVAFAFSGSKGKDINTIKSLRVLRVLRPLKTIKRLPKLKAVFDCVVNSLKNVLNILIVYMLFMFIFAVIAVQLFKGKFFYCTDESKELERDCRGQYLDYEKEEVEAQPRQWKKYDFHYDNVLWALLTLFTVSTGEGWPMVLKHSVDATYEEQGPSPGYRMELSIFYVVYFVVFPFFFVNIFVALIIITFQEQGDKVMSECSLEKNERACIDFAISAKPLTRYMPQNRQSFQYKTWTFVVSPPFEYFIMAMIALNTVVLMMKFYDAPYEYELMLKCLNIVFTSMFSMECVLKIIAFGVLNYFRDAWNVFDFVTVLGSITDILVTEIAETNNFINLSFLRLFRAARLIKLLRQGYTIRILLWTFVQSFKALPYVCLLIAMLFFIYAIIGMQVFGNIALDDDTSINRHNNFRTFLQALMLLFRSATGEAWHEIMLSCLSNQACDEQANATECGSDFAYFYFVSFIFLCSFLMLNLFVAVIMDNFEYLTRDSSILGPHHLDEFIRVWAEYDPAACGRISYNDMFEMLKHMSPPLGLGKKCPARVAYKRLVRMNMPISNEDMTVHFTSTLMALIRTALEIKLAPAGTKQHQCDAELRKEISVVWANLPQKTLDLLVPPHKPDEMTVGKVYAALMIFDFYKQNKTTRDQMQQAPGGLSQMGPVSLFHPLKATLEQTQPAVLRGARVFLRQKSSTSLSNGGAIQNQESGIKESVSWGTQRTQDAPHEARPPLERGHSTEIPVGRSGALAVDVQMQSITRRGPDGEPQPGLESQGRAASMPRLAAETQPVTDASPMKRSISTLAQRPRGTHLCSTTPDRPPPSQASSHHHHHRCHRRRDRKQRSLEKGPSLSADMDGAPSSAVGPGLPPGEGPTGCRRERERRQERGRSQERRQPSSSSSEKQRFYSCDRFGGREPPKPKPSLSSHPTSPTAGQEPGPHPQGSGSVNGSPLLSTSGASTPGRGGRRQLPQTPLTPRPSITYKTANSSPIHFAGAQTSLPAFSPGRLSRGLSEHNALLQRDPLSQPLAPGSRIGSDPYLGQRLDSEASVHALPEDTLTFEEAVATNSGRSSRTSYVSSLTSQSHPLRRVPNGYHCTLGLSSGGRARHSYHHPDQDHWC
T1 sequence (Q02410 whole entry): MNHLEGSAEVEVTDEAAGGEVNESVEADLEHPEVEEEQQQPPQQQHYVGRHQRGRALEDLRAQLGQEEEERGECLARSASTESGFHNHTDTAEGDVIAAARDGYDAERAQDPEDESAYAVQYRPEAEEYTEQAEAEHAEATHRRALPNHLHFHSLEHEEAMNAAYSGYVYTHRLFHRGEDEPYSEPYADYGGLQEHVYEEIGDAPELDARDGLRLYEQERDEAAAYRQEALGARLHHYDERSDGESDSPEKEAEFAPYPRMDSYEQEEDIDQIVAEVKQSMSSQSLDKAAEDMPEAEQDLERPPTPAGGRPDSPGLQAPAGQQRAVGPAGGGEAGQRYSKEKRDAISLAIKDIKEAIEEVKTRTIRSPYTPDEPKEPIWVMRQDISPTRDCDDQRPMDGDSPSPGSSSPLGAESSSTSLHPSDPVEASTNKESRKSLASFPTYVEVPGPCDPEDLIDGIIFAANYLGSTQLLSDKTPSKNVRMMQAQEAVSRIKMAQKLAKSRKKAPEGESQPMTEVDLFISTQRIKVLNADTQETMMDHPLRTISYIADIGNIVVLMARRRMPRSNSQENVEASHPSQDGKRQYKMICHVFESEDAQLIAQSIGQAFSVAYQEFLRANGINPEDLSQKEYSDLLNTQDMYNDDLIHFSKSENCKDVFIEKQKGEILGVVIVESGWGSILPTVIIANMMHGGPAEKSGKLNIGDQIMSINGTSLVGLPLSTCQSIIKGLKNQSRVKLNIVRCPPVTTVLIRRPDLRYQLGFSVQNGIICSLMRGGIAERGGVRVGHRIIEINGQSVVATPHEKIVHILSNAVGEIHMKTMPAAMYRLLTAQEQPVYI
Sequence of Induced myeloid leukemia cell differentiation protein Mcl-1 (Q07820 whole entry): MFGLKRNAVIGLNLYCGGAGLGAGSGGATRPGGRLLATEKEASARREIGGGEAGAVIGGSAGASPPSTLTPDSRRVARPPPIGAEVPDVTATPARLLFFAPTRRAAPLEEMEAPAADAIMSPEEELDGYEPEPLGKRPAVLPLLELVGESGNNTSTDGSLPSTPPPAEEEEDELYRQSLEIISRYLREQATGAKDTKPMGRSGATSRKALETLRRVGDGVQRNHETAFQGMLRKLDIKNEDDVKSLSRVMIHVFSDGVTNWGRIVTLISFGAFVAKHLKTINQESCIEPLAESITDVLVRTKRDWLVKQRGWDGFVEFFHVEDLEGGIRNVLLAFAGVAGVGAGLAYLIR
Sequence of 72 kDa type IV collagenase (P08253 whole entry): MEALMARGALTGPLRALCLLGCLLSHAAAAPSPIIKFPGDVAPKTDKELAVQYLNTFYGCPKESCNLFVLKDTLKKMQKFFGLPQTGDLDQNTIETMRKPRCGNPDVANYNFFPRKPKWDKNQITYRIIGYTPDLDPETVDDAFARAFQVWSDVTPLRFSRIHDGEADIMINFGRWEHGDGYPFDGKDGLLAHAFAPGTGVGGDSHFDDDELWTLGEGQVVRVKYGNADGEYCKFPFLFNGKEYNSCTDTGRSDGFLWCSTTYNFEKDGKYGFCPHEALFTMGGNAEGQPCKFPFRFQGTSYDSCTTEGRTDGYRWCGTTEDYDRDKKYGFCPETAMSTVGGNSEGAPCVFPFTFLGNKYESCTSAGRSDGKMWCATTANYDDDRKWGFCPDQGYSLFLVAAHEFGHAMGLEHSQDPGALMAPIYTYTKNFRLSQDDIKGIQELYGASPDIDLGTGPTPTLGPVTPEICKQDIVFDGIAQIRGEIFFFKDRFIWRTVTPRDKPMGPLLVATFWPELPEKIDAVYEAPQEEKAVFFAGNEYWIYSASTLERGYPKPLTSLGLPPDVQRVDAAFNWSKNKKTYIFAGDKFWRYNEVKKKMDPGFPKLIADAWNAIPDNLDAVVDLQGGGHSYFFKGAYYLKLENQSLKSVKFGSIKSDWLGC
Sequence of 26S proteasome non-ATPase regulatory subunit 14 (O00487 whole entry): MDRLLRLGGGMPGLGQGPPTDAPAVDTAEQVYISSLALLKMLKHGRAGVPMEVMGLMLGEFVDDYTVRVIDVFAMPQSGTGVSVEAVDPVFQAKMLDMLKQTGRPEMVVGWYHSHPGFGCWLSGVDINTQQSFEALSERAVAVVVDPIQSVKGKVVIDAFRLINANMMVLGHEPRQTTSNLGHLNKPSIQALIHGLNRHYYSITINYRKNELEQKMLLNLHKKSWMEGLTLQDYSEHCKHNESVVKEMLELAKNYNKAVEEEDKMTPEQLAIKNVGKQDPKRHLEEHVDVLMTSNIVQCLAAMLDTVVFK
Sequence of G-protein coupled receptor 35 (Q9HC97 whole entry): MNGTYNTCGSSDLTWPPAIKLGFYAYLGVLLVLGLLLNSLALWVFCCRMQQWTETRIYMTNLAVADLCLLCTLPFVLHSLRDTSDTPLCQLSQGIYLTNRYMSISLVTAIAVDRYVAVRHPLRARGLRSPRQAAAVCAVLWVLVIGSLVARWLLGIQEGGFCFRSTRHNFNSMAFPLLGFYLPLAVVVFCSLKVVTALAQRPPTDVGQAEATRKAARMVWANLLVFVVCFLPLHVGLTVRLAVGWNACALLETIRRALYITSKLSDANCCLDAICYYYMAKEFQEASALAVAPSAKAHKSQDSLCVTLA
Sequence of Eukaryotic translation initiation factor 4E (P63073 whole entry): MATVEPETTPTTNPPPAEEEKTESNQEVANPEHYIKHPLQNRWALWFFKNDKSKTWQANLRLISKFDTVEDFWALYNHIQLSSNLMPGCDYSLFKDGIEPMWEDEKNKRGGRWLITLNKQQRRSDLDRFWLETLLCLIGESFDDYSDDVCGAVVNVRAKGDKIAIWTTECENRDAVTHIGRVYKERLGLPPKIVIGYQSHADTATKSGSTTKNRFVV

## O=C1NC(=S)S/C1=C\c1c(-c2ccccc2)[nH]c2ccccc12
[1]
  IC50: > 50 µM (not active)
[2]
  IC50: > 50 µM (not active)
[3]
  IC50: 4.97 µM (active)
Beta-galactosidase
  IC50: > 66.6 µM (inactive)

## O=C(NN=Cc1ccc(F)cc1)c1cc(-c2ccco2)nc2ccccc12
SUMO E1/E2
  IC50: 5.24 µM (active)
[4]
  IC50: 10.9 µM (active)
[5]
  IC50: 6.45 µM (active)

## O=C(Nc1ccc(-c2csc(Nc3ccccc3)n2)cc1)c1cccc(C(F)(F)F)c1
[6]
  EC50: > 150 µM (not active)
Streptokinase A
  EC50: > 150 µM (not active)
Streptococcus
  EC50: > 150 µM (not active)
[7]
  AC50: 0.347 µM (active)

## N=C1/C(=C/c2ccc(-c3cccc(C(=O)O)c3)o2)C(=O)N=C2SC=C(c3ccccc3)N12
[8]
  IC50: 1.1 µM (active)
[9]
  IC50: 13.3 µM (active)
[10]
  IC50: > 50 µM (inactive)
[3]
  IC50: > 54 µM (active)
[11]
  IC50: 18.1 µM (active)
[12]
  IC50: 5.82 µM (active)
[13]
  IC50: 6.29 µM (active)
Prothrombin
  IC50: 10.2 µM (active)

## NS(=O)(=O)c1ccc(Nc2nc3ccccc3nc2NS(=O)(=O)c2cccc([N+](=O)[O-])c2)cc1
Aminopeptidase N
  IC50: 42.9 µM (active)
[14]
  AC50: 53 µM (active)
